{
  "source": "paper PMC12389269",
  "about": "“Heteroaryl-Capped Hydroxamic Acid Derivatives with Varied Linkers: Synthesis and Anticancer Evaluation with Various Apoptosis Analyses in Breast Cancer Cells, Including Docking, Simulation, DFT, and ADMET Studies” (Pharmaceuticals, 2025)",
  "key": {"[1]": {"system": "HEK-293 cells", "assay": "MTT cytotoxicity assay, normal cell line HEK-293", "type": "cell-based", "procedure": "Following an extensive review of the literature, we selected human breast cancer (MCF-7, MDA-MB-231) and lung cancer (A549) cell lines to evaluate the anticancer potential of the synthesized compounds, and some compounds with good anti-proliferation activity were again tested to evaluate their cytotoxic potential on A-549, MCF-7, and MDA-MB-231. The same were also tested on one non-cancerous/normal (HEK-293) cell line. All the cell lines for the required screening were developed in a suitable medium comprising 10% FBS and 2mM L-glutamine. Cancerous and non-cancerous/normal cell lines were selected for the cell proliferation and cytotoxicity assay and maintained with 5% CO2 at 37 °C in a CO2 incubator with 100% relative humidity for one complete day before the addition of experimental drugs.\nMTT, a well-known colorimetric cytotoxic assay was performed to validate the cytotoxicity of the selected compounds—VI(b), VI(c), VI(e), and VI(i)—against three different human tumor cell lines [MCF-7, MDA-MB-231, A549] and a normal cell line [HEK293]. The seeding of 1 × 10^4 cells onto each well was executed in a 96-well plate in triplicate, and to keep the cells viable, overnight incubation was undertaken at 37 °C with 5% CO2 in a CO2 incubator. […] The microplate reader was set at 570 nm to measure the absorbance of each well."}, "[2]": {"system": "MCF-7 cells", "assay": "ROS detection with DCFH-DA", "type": "cell-based, human", "details": "MCF-7, 40, 60, 80 µg/mL, vs control", "description": "ROS are commonly produced as a result of the cellular metabolic routes, and they play a key role as a secondary messenger in the healthy physiological system, but elevated quantities of ROS are the reason for various pathological conditions. To assess oxidative stress (ROS)-mediated apoptosis, DCFH-DA (2′,7′-dichlorodihydrofluorescein diacetate) dye was used as ROS transforms DCFH to DCF, producing a green fluorescence. The intensity of green fluorescence emitted is directly correlated with the amount of ROS produced by the cells in the treatment groups. Briefly, MCF-7 cells were passaged then seeded (5 × 10^4 cells /well) in a 12-well plate and exposed to all three (lower, IC50, higher) concentrations of compound VI(i); then, overnight incubation was undertaken with 5% carbon dioxide at 37 °C. To assess the generated ROS, treated cells (MCF-7) were washed with PBS. Staining was undertaken using DCFH-DA and photographed with the help of a fluorescence microscope (inverted) in the green and phase contrast channels."}, "[3]": {"target": "T1, HDAC6 (Homo sapiens, UniProt Q9UBN7)", "T1 construct": "The HeLa nuclear extract was used as a source of HDAC activity; host or cells: HeLa (nuclear extract / cells)", "T1 sequence (Q9UBN7 1-1215)": "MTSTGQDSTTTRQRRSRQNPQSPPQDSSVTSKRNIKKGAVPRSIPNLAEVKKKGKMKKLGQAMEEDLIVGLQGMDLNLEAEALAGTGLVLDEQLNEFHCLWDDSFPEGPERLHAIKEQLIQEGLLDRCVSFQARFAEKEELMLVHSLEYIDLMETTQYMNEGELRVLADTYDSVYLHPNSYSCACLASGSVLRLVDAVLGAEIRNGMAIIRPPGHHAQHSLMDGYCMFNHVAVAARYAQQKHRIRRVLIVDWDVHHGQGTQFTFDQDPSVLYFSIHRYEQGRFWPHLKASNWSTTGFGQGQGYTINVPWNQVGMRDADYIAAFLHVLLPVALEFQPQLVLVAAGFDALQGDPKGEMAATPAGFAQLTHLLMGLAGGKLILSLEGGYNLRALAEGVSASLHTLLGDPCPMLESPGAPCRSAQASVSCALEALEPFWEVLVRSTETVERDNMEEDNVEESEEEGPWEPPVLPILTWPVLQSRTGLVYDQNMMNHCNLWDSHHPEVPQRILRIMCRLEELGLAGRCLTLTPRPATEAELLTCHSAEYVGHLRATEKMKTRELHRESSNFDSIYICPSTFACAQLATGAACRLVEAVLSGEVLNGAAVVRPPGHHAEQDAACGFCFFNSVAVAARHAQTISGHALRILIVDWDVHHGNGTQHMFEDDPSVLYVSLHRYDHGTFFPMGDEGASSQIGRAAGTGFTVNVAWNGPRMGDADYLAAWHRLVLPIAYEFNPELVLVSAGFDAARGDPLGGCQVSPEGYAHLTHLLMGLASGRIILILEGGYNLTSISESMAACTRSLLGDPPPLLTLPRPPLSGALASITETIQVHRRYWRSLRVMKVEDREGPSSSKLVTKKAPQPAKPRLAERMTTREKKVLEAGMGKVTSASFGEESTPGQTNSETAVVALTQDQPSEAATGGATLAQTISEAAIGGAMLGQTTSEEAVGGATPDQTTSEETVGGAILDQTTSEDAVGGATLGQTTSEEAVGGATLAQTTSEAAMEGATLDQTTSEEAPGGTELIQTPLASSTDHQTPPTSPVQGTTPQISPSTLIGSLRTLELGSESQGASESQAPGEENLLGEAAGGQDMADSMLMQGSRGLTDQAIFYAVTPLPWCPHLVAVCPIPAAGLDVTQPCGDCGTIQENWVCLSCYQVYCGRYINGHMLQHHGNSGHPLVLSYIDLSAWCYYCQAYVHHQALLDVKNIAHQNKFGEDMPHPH", "assay": "HDAC inhibition assay (color de lys ELISA kit), HDAC6", "type": "biochemical", "details": "HeLa nuclear extract as source of HDAC activity", "procedure": "SAHA served as the assay’s positive control. The HeLa nuclear extract was used as a source of HDAC activity. The trypsinized HeLa cells were tallied, put into 96-well microtiter plates, and nurtured. Samples and the standard were placed in wells at a concentration of 100 µL. The culture environment was maintained as per the procedure. 3,3′,5,5′-tetramethylbenzidine (TMB) was included for visualization. Finally, 50 µL of halt solution was smeared. The samples and different SAHA concentrations (0.01, 0.1, 1, 10 μM) were introduced to the appropriate well and left for 72 h. BioTek Epoch (Winooski, VT, USA) microplate reader was used to quantify optical density at 450 nm. The Graph Pad Prism 5 helped to determine the IC50 values."}},
  "note": "pIC50: −log10 of the molar value. “Also recorded” adds a separate entry of the source.",
  "data": [
    {"smiles": "COc1ccc(-c2cnn(CCCCCC(=O)NO)n2)cc1", "note": "[VI(i), N-Hydroxy-6-(4-(4-methoxyphenyl)-2H-1,2,3-triazol-2-yl)hexanamide]", "values": [
      {"measurement": "toxicity towards normal cell line", "setting": "[1]", "value": "low toxicity; also recorded: somewhat minimal toxicity"},
      {"measurement": "ROS level", "setting": "[2]", "value": "significantly increased in concentration-dependent manner"},
      {"measurement": "pIC50", "setting": "[3]", "value": 4.87}
    ]}
  ]
}
